Test results reported in publication PMC6273209, “Evaluation of the Enantiomer Specific Biokinetics and Radiation Doses of [^18F]Fluspidine—A New Tracer in Clinical Translation for Imaging of σ1 Receptors” (Molecules, 2016).

Tests used:
σ1 receptors = test system: σ1 receptors; parameters: method as in PMID 25071097; conditions: σ1-rich areas of the porcine brain; cited from earlier work
[1] = Acute toxicity study, single intravenous injection; type: in vivo; conditions: single intravenous administration, Wistar rats, day 2 and day 15; highest tested dose
Text: Supplementary Materials: Evaluation of the Enantiomer Specific Biokinetics and Radiation Doses of [18F]Fluspidine—A New Tracer in Clinical
Translation for Imaging of σ1 Receptors […]
Supplemental Methods and Results
Animal Toxicity Study of (S)-(−)-Fluspidine
The purpose of this study was to assess the acute toxicity of (S)-(−)-fluspidine when administered by a single intravenous injection to rats followed by an observation period of 2 or 15 day (in accordance with EU cGLP). Briefly, the study was performed with 4 test groups, including 1 control (saline and dimethylsulfoxide) and 3 dose groups (6.2, 62 and 620 µg/kg, (S)- (−)ﬂuspidine), with Wistar rats (60 m, 60 f, 12 weeks) divided into two experiments: day 2 (40 males and 40 females) and day 15 (20 males and 20 females). The animals were weighted and allocated to the test groups based on their actual body weights. The animals were sacrificed at two time periods (day 2 and day 15 after test item administration) and then examined macroscopically and histopathologically. In addition the following parameters were evaluated: mortality, clinical observation (spasms, tremor and hyperactivity), body weights, food consumption, haematology (white blood cells, red blood cells, hemoglobin, hematocrit, mean corpuscular volume, mean corpuscular hemoglobin, platelets, lympohcytes, neutrophils, eosinophils, basophils, monocytes), clinical chemistry (alkaline phosphatase, aspartate aminotransferase, alanine aminotransferase, glucose, cholesterol, triacylglycerols, creatinine, urea, bilirubin, albumin, calcium, phosphorus, sodium, potassium chloride), pathology and histopathology. […]
in either gender were detected. The food consumption corresponded with body weight development. All haematology parameter´s values on day 2 and day 15 were within physiological range for this species. Individual divergences of some values of the haematology parameters were slight and not connected with treatment.
There were no findings in clinical chemistry parameters which could be definitively considered as adverse. The average values of all test groups were within the historical control ranges. Occasional changes had no dose relationship, they were considered to be a result of intraindividual and interindividual variability for this species. […]
histopathological parameters on day 2 and day 15. The no observed effect level (NOEL) of (S)- (−)-fluspidine after single intravenous administration in this study for both day 2 and day 15 was determined to be 620 µg/kg.

Row | SMILES | binding potential (BPnd), fold higher in comparison to (S)-(−)-[^18F]fluspidine (σ1 receptors) | no observed effect level (NOEL) [1] [mg/kg]
1 | [18F]CC[C@H]1OC2(CCN(Cc3ccccc3)CC2)c2ccccc21 [(R)-(+)-[^18F]fluspidine] | 5- to 10 fold | 
2 | FCC[C@@H]1OC2(CCN(Cc3ccccc3)CC2)c2ccccc21 [(S)-(−)-[^18F]fluspidine] |  | ≥ 0.6
